Broadly, the melting point is the temperature, or range, at which the solid turns liquid. Consider `COc1ccccc1-c1ccc(C[C@H](NC(=O)c2c(Cl)cccc2Cl)C(=O)O)cc1OC`, for which the melting point was in the range of 100 to 102 °C.

The compound `CC(C(=O)O)(c1ccc(OCc2ccc3ccccc3n2)cc1)c1ccc(OCc2ccc3ccccc3n2)cc1` yielded a melting point of 208 to 210 °C.

`COc1cc(Br)cc([N+](=O)[O-])c1N` displayed a melting point of 137 to 138 °C.

With `CCOC(=O)C(Cc1c(Cl)cc(OC)cc1Cl)(NC(C)=O)C(=O)OCC`, the melting point fell in the range of 154 to 156 °C.

With `COC1(OC)C=Cc2cc(Cc3cnc(N)nc3N)cc(OCC3CC3)c2O1`, the melting point is 204 to 206 °C.

Take `CS(=O)(=O)c1ccc(-c2nc(C(F)(F)F)[nH]c2-c2ccc(F)c(F)c2)cc1`: the melting point lay in the range of 249 to 252 °C.

`CCCOc1ccccc1-c1ccc2c(c1)C=C(C(=O)Nc1ccc(CN(C)C3CCOCC3)cc1)CCS2(=O)=O`: the melting point fell in the range of 190 to 192 °C.

`NC[C@H]1C=Cc2cc(F)cc(-c3c(Cl)cccc3Cl)c2O1` yielded a melting point of 153 to 155 °C.

In the case of `O=[S@@]1CCC(c2ccccc2)(c2ccccc2)[C@@H]2CNC[C@@H]21` (racemic), the melting point came to 192 °C.

For the compound `CC(C(N)=O)c1ccc2c(c1)C(=O)Cc1cc(C(F)(F)F)ccc1S2` (configuration not stated), the melting point is 159 to 161 °C.

Regarding `CCOc1noc(-c2nc[nH]n2)c1C`, the melting point lay in the range of 194 to 196 °C.

Regarding `COc1cc2c(cc1O)CCN(C(=O)c1ccc(C#N)cc1)C2=O`, the melting point is 198 to 199 °C.

Regarding `COC(=O)COc1ncccc1Oc1cc(N2C(=O)C=C(C(F)(F)F)CC2=O)c(F)cc1Cl`, the melting point came to 75.3 °C.

In turn, `FC(F)(F)Oc1ccc(C2=CCC3(CC2)OCCO3)cc1` had a melting point of 53.9 to 55.5 °C.

Compound `CC(=O)c1cccc(S(=O)(=O)C[N+](=O)[O-])c1` came in with a melting point of 99 to 100 °C.

Take `Cc1cc(Nc2ccc(Cl)cc2)nc(-n2ncc3ccccc32)n1`: the melting point lay in the range of 167 to 169 °C.

Turning to `Nc1nc2ccccc2c2c1ncn2CCCCCCCCNC(=O)c1ccccc1`, the melting point is 133 to 137 °C.

`COc1ccccc1OCC(O)CCCl` (configuration not stated) gave a melting point of 48 to 50 °C.

Consider `C=COC(=O)N1C[C@@H]2SCCC(c3ccccc3)(c3ccccc3)[C@@H]2C1` (racemic), for which the melting point was 160 °C.

The compound `COc1ccc2c3c1OC1C(O)C(C)(C)CC4C(C2)N(C)CCC341` (configuration not stated) gave a melting point of over 265 °C.

In the case of `Cc1cc2cc(N(C(=O)Nc3ccc(F)cc3F)c3ccccc3Cl)c(=O)oc2cc1C`, the melting point lay within 212 to 214 °C.

As for `FC(F)(F)Oc1ccc(Nc2cc(-c3ccccc3)nc(-c3ccccc3)n2)cc1`, the melting point was in the range of 220 to 222 °C.

On to `CCOC(=O)CCCn1c(NC(=O)c2cccs2)nc2cc(C(=O)N(C)C3CCCCC3)ccc21`, for which the melting point was in the range of 82 to 84 °C.

`O=c1c2c(Cc3ccc(C(F)(F)F)cc3)n[nH]c2c2cccnc2n1-c1ccccc1` yielded a melting point of 216 to 219 °C.

On to `CC1(C)Cc2cccc(S(N)(=O)=O)c2O1`, for which the melting point fell in the range of 160 to 162 °C.

In the case of `CCOC(=O)C1=Cc2cc(-c3ccc(C(F)(F)F)cc3)ccc2OCC1`, the melting point lay in the range of 107 to 110 °C.

On to `CC1C(CCc2ccccc2)SC2=CC=NC3=CC=CC(c4ccccc4)C321` (configuration not stated), for which the melting point was determined as 210 °C.

The compound `N#CC=Cc1cccc(Cl)c1F` registered a melting point of 90 to 92 °C.

Turning to `COC(=O)C(CCCCCCCCCCCCC(C(=O)O)C1CC1)C1CC1` (configuration not stated), the melting point lay in the range of 59.4 to 60.5 °C.

Compound `Cc1c(C(=O)O)cc(O)c2cc(-c3ccc4c(c3)C(C)(C)CCC4(C)C)ccc12` had a melting point of 266 °C.

Regarding `Cc1ccccc1-c1nc2c3ccccc3ccn2c1NC(C)c1ccccc1` (configuration not stated), the melting point was in the range of 160 to 162 °C.

Turning to `N#CC(c1ccccn1)c1cccs1` (configuration not stated), the melting point is 48 to 50 °C.

Take `N#Cc1c(Cl)ccnc1Cl`: the melting point fell in the range of 107 to 109 °C.

`CS(=O)(=O)NCCC(c1cc(F)ccc1F)S(=O)(=O)c1ccc(Cl)cc1` (configuration not stated) registered a melting point of 131 to 134 °C.

Consider `COc1cc(S(C)=O)ccc1-c1ccc(C#N)c(=O)[nH]1` (configuration not stated), for which the melting point lay within 239 to 241 °C.

As for `O=C(OCC1CCC(COC(=O)c2ccccc2)CC1)c1ccccc1` (configuration not stated), the melting point is 111 to 113 °C.

As for `OCCCCCCCCCCCCN1CCC(CNC[C@H](O)COc2cccc3[nH]c4ccccc4c23)CC1`, the melting point amounted to 110 °C.

In turn, `CCOC(=O)Cc1nc(-c2ccc(Cl)cc2)oc1-c1ccsc1` had a melting point of 127 to 128 °C.

The compound `O=C(Nc1c(F)cccc1F)c1c(O)ccn2c1nc1ccccc12` came in with a melting point of 232 to 235 °C.

Take `Nc1ncnc2c1ncn2OCCSCP(=O)(O)O`: the melting point was in the range of 211 to 213 °C.

For `Cc1c(NC(=O)c2ccc(OCC3CCCO3)cc2)ccc2cc(CNC3CCC(O)CC3)cnc12` (configuration not stated), the melting point worked out at 155 °C.

As for `CCCCC(CC)COc1cc(-c2ccccn2)nc(-c2ccccn2)c1` (configuration not stated), the melting point came to 58.5 °C.

In the case of `Cc1nc(N2CCCC2)ccc1N1CCCn2c1nc1c(Cl)ccc(C(OC(F)F)C(F)(F)F)c12` (configuration not stated), the melting point lay within 233 to 236 °C.

In the case of `CC(=O)Nc1cc(Cc2ccc3c(C(=O)Nc4ccc(CN5CCN(C)CC5)c(C(F)(F)F)c4)cccc3c2)ncn1`, the melting point is 202 to 204 °C.

`Cc1nc(Cl)c(-c2ccc(F)cc2)n1-c1ccc(Cl)cc1`: the melting point lay within 124 to 126 °C.

With `CC1(C)CC(=O)c2c(nc(Cc3ccc(Cl)cc3)c3[nH]c4ccccc4c23)C1`, the melting point is 205 to 207 °C.

Consider `CCOC(=O)CNc1nc(Cl)ccc1[N+](=O)[O-]`, for which the melting point fell in the range of 77.5 to 80 °C.

The compound `CC(=O)NC[C@H]1CN(c2ccc(C(=O)c3cnc4cnccn34)cc2)C(=O)O1` came in with a melting point of 254 to 256 °C.

As for `CCOc1ccc(-c2nc(-c3ccc(S)cc3C(=O)O)cs2)cc1OCC`, the melting point lay in the range of 283 to 285 °C.

Compound `COc1ccc(-c2nn(C(C)C)c3c(C(F)(F)F)cccc23)c(OC)c1` registered a melting point of 128 to 129 °C.

Compound `CN(C(=O)c1ccc(-c2ccccc2)cc1)c1ccccc1` registered a melting point of 99 to 102 °C.

For the compound `Oc1ccc2c(c1O)OCC(c1ccc(F)cc1)C2` (configuration not stated), the melting point fell in the range of 166 to 168 °C.

In turn, `O=C(O)C1Cc2c([nH]c3ccccc23)CN1C(=S)SCCc1ccccc1` (configuration not stated) came in with a melting point of 89 to 90 °C.

`O=C1CCCC(S(=O)(=O)c2ccccc2)C1` (configuration not stated) came in with a melting point of 83 to 85 °C.

In turn, `CCn1ncc2c1ncc1c(OCCCN(C)C)nc3cc(C)nn3c12` had a melting point of 62 to 64 °C.

`CCCCNC(=O)NS(=O)(=O)c1ccc(CCNC(=O)N2Cc3ccc(C)cc3C2=O)cc1`: the melting point fell in the range of 169 to 171 °C.

Compound `COC(=O)/C=C/c1c(-c2ccc(F)cc2)c2ccccc2n1C(C)C` had a melting point of 155 to 157 °C.

On to `CCCN(CCCc1c[nH]c2c(F)cc(F)cc12)C1COc2c(C(N)=O)ccc(F)c2C1` (configuration not stated), for which the melting point was found to be 130 °C.

The compound `COc1ccc(-c2[nH]nc(C(=O)Oc3ccccc3)c2N)cc1` returned a melting point of 286 to 291 °C.

In turn, `Cc1ncn(-c2cc(C(Cl)(Cl)Cl)c3cc(C(Cl)(Cl)Cl)ccc3n2)n1` showed a melting point of 169 to 170 °C.

Compound `O=c1[nH]c2ccccc2n1CCN1CCC(Nc2nc3cccnc3n2CCOCCO)CC1` showed a melting point of 177 °C.

The compound `CCC(C)CC(=O)OC1COC(OC(=O)CC(C)CC)CO1` (configuration not stated) gave a melting point of 71 to 72 °C.

Source of the values: a melting point compilation (Tetko et al.; mined from patent text by program, amines drawn as free bases though some values may be those of a salt).
